# Experiments:
# [1] = target: T1, BRAF V600E (Homo sapiens, UniProt P15056, V600E); assay: Cellular assay of target protein degradation, T-Rex 293 cells stably transfected with HA-BRAF_V600E (HA immunofluorescence, high content imaging); assay type: cell-based; conditions: T-Rex 293 HA-BRAF V600E; for DC50: half maximal degradation, read-out: BRaf V600E DC50; for Dmax: maximum degradation observed
# T1 construct: expressed in transfected cells
# How it was run: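 24 h compound exposure, 1 μM–0.1 nM final, 0.1% DMSO, 37 °C; cells induced with 1 ng/mL doxycycline. PFA fix, Triton permeabilize, anti-HA overnight 4 °C, Hoechst/phalloidin counterstain. Output: DC50, Dmax as % control.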
# [2] = target: T2, BRAF G466V (Homo sapiens, UniProt P15056, G466V); assay: Cellular assay of target protein degradation, T-Rex 293 cells stably transfected with HA-BRAF G466V (HA immunofluorescence, high content imaging); assay type: cell-based; conditions: T-Rex 293 HA-BRAF G466V; for DC50: half maximal degradation, read-out: BRaf G466V DC50; for Dmax: maximum degradation observed
# T2 construct: expressed in transfected cells
# How it was run: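 24 h compound, 30 nM–3 pM final, 0.1% DMSO, 37° C; HA-BRAF G466V induced with 0.75 ng/mL doxycycline. PFA fix, Triton perm, anti-HA + Alexa fluor secondary, Hoechst/phalloidin counterstain; imaging. DC50, Dmax (% of control).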
# T2 sequence (P15056 whole entry G466V): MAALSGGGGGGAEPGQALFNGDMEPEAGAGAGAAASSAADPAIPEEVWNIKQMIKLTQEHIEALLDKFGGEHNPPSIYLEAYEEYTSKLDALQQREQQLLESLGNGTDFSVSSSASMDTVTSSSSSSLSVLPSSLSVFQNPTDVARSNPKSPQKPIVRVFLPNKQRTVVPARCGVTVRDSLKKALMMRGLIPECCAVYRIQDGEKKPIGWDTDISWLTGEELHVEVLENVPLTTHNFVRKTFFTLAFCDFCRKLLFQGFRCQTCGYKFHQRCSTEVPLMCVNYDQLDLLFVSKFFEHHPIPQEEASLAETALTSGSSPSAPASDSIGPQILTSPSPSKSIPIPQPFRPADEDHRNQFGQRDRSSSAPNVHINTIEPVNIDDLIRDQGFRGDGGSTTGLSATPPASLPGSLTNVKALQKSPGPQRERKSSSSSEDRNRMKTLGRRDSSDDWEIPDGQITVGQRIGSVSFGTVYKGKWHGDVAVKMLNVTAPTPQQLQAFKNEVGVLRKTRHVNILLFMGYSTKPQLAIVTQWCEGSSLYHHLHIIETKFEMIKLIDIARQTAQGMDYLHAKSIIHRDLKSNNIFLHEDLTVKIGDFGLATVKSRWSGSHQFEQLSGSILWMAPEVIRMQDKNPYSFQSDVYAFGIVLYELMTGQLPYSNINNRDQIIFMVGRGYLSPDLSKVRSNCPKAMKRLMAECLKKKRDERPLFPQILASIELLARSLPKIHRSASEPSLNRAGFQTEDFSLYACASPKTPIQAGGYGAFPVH
# T1 sequence (P15056 whole entry V600E): as the sequence (P15056 whole entry G466V) above, with V466G, V600E counted along it
DC50 [1],Dmax [1],DC50 [2],Dmax [2],Structure (SMILES)
0.005 to 0.05 µM,< 35%,0.01 to 0.03 µM,> 70%,"O=C1CC[C@H](N2Cc3cc(C4CCN(CC5CCN(c6ccc(-c7cnc8[nH]cc(C(=O)c9c(F)ccc(NS(=O)(=O)N%10CC(O)C%10)c9F)c8c7)cc6)CC5)CC4)ccc3C2=O)C(=O)N1 [Compound 279, N-{3-[5-(4-{4-[(4-{2-[(3S)-2,6-dioxopiperidin-3-yl]-1-oxo-2,3-dihydro-1H-isoindol-5-yl}piperidin-1-yl)methyl]piperidin-1-yl}phenyl)-1H-pyrrolo[2,3-b]pyridine-3-carbonyl]-2,4-difluorophenyl}-3-hydroxyazetidine-1-sulfonamide]"
0.005 to 0.05 µM,35 to 70%,0.001 to 0.01 µM,35 to 70%,"CN(CCO)S(=O)(=O)Nc1ccc(F)c(C(=O)c2c[nH]c3ncc(-c4ccc(N5CCC(CN6CCC(c7ccc8c(c7)CN([C@H]7CCC(=O)NC7=O)C8=O)CC6)CC5)cc4)cc23)c1F [Compound 280, (3S)-3-(5-{1-[(1-{4-[3-(2,6-difluoro-3-{[(2-hydroxyethyl)(methyl)sulfamoyl]amino}benzoyl)-1H-pyrrolo[2,3-b]pyridin-5-yl]phenyl}piperidin-4-yl)methyl]piperidin-4-yl}-1-oxo-2,3-dihydro-1H-isoindol-2-yl) piperidine-2,6-dione]"
0.005 to 0.05 µM,35 to 70%,0.001 to 0.01 µM,35 to 70%,"CN(C1CC1)S(=O)(=O)Nc1ccc(F)c(C(=O)c2c[nH]c3ncc(-c4ccc(N5CCC(CN6CCC(c7ccc8c(c7)CN([C@H]7CCC(=O)NC7=O)C8=O)CC6)CC5)cc4)cc23)c1F [Compound 281, (3S)-3-(5-{1-[(1-{4-[3-(3-{[cyclopropyl(methyl)sulfamoyl]amino}-2,6-difluorobenzoyl)-1H-pyrrolo[2,3-b]pyridin-5-yl]phenyl}piperidin-4-yl)methyl]piperidin-4-yl}-1-oxo-2,3-dihydro-1H-isoindol-2-yl) piperidine-2,6-dione]"
0.05 to 0.5 µM,35 to 70%,0.001 to 0.01 µM,> 70%,"O=C1CC[C@H](N2Cc3cc(C4CCN(CC5CCN(c6ccc(-c7cnc8[nH]cc(C(=O)c9c(F)ccc(NS(=O)(=O)CCO)c9F)c8c7)cc6)CC5)CC4)ccc3C2=O)C(=O)N1 [Compound 282, N-{3-[5-(4-{4-[(4-{2-[(3S)-2,6-dioxopiperidin-3-yl]-1-oxo-2,3-dihydro-1H-isoindol-5-yl}piperidin-1-yl)methyl]piperidin-1-yl}phenyl)-1H-pyrrolo[2,3-b]pyridine-3-carbonyl]-2,4-difluorophenyl}-2-hydroxyethane-1-sulfonamide]"
0.005 to 0.05 µM,35 to 70%,0.001 to 0.01 µM,> 70%,"COc1c(NS(=O)(=O)N2CC[C@@H](F)C2)ccc(F)c1C(=O)c1c[nH]c2ncc(-c3ccc(N4CCC(CN5CCC(c6ccc7c(c6)CN(C6CCC(=O)NC6=O)C7=O)CC5)CC4)cc3)cc12 (stereo partly drawn) [Compound 283, (3R)-N-[3-(5-{4-[4-({4-[2-(2,6-dioxopiperidin-3-yl)-1-oxo-2,3-dihydro-1H-isoindol-5-yl]piperidin-1-yl}methyl)piperidin-1-yl]phenyl}-1H-pyrrolo[2,3-b]pyridine-3-carbonyl)-4-fluoro-2-methoxyphenyl]-3-fluoropyrrolidine-1-sulfonamide]"
0.005 to 0.05 µM,35 to 70%,0.001 to 0.01 µM,> 70%,"CNc1cc(-c2cnc3[nH]cc(C(=O)c4c(F)ccc(NS(=O)(=O)N5CC[C@@H](F)C5)c4F)c3c2)cc(NC)c1N1CCC(CN2CCC(c3ccc4c(c3)CN([C@H]3CCC(=O)NC3=O)C4=O)CC2)CC1 [Compound 284, (3R)-N-{3-[5-(4-{4-[(4-{2-[(3S)-2,6-dioxopiperidin-3-yl]-1-oxo-2,3-dihydro-1H-isoindol-5-yl}piperidin-1-yl)methyl]piperidin-1-yl}-3,5-bis(methylamino)phenyl)-1H-pyrrolo[2,3-b]pyridine-3-carbonyl]-2,4-difluorophenyl}-3-fluoropyrrolidine-1-sulfonamide]"
0.005 to 0.05 µM,< 35%,0.001 to 0.01 µM,35 to 70%,"CNc1cc(-c2cnc3[nH]cc(C(=O)c4c(F)ccc(NS(=O)(=O)N5CC[C@@H](F)C5)c4F)c3c2)cc(NC)c1N1CCC(CN2CCC(c3ccc4c(c3)CN(C3CCC(=O)NC3=O)C4=O)CC2)CC1 (stereo partly drawn) [Compound 285, (3R)-N-[3-(5-{4-[4-({4-[2-(2,6-dioxopiperidin-3-yl)-1-oxo-2,3-dihydro-1H-isoindol-5-yl]piperidin-1-yl}methyl)piperidin-1-yl]-3,5-bis(methylamino)phenyl}-1H-pyrrolo[2,3-b]pyridine-3-carbonyl)-2,4-difluorophenyl]-3-fluoropyrrolidine-1-sulfonamide]"
0.05 to 0.5 µM,35 to 70%,0.001 to 0.01 µM,35 to 70%,"O=C1CC[C@@H](N2Cc3cc(N4CC(CN5CCN(C6(c7ncc(-c8cnc9[nH]cc(C(=O)c%10c(F)ccc(NS(=O)(=O)N%11CC[C@@H](F)C%11)c%10F)c9c8)cn7)CC6)CC5)C4)ccc3C2=O)C(=O)N1 [Compound 286, (3R)-N-(3-{5-[2-(1-{4-[(1-{2-[(3R)-2,6-dioxopiperidin-3-yl]-1-oxo-2,3-dihydro-1H-isoindol-5-yl}azetidin-3-yl)methyl]piperazin-1-yl}cyclopropyl)pyrimidin-5-yl]-1H-pyrrolo[2,3-b]pyridine-3-carbonyl}-2,4-difluorophenyl)-3-fluoropyrrolidine-1-sulfonamide]"
0.005 to 0.05 µM,35 to 70%,0.001 to 0.01 µM,35 to 70%,"CN(c1ncc(-c2cnc3[nH]cc(C(=O)c4c(F)ccc(NS(=O)(=O)N5CC[C@@H](F)C5)c4F)c3c2)cn1)C1CCN(CC2CCN(c3ccc4c(c3)CN([C@H]3CCC(=O)NC3=O)C4=O)CC2)CC1 [Compound 287, (3R)-N-(3-{5-[2-({1-[(1-{2-[(3S)-2,6-dioxopiperidin-3-yl]-1-oxo-2,3-dihydro-1H-isoindol-5-yl}piperidin-4-yl)methyl]piperidin-4-yl}(methyl)amino)pyrimidin-5-yl]-1H-pyrrolo[2,3-b]pyridine-3-carbonyl}-2,4-difluorophenyl)-3-fluoropyrrolidine-1-sulfonamide]"
0.05 to 0.5 µM,35 to 70%,> 0.03 µM,> 70%,"O=C1CC[C@H](N2Cc3cc(N4CCC(CN5CCN(C6(c7ccc(-c8cnc9[nH]cc(C(=O)c%10c(F)ccc(NS(=O)(=O)N%11CC[C@@H](F)C%11)c%10F)c9c8)cn7)CC6)CC5)CC4)ccc3C2=O)C(=O)N1 [Compound 288, (3R)-N-(3-{5-[6-(1-{4-[(1-{2-[(3S)-2,6-dioxopiperidin-3-yl]-1-oxo-2,3-dihydro-1H-isoindol-5-yl}piperidin-4-yl)methyl]piperazin-1-yl}cyclopropyl)pyridin-3-yl]-1H-pyrrolo[2,3-b]pyridine-3-carbonyl}-2,4-difluorophenyl)-3-fluoropyrrolidine-1-sulfonamide]"
0.05 to 0.5 µM,35 to 70%,0.01 to 0.03 µM,35 to 70%,"C[C@@H](c1ncc(-c2cnc3[nH]cc(C(=O)c4c(F)ccc(NS(=O)(=O)N5CC[C@@H](F)C5)c4F)c3c2)cn1)N1CCN(CC2CCN(c3ccc4c(c3)CN([C@H]3CCC(=O)NC3=O)C4=O)CC2)CC1 [Compound 289, (3R)-N-[3-(5-{2-[(1S)-1-{4-[(1-{2-[(3S)-2,6-dioxopiperidin-3-yl]-1-oxo-2,3-dihydro-1H-isoindol-5-yl}piperidin-4-yl)methyl]piperazin-1-yl}ethyl]pyrimidin-5-yl}-1H-pyrrolo[2,3-b]pyridine-3-carbonyl)-2,4-difluorophenyl]-3-fluoropyrrolidine-1-sulfonamide]"
0.05 to 0.5 µM,35 to 70%,0.001 to 0.01 µM,35 to 70%,"C[C@H](c1ncc(-c2cnc3[nH]cc(C(=O)c4c(F)ccc(NS(=O)(=O)N5CC[C@@H](F)C5)c4F)c3c2)cn1)N1CCN(CC2CCN(c3ccc4c(c3)CN([C@H]3CCC(=O)NC3=O)C4=O)CC2)CC1 [Compound 290, (3R)-N-[3-(5-{2-[(1R)-1-{4-[(1-{2-[(3S)-2,6-dioxopiperidin-3-yl]-1-oxo-2,3-dihydro-1H-isoindol-5-yl}piperidin-4-yl)methyl]piperazin-1-yl}ethyl]pyrimidin-5-yl}-1H-pyrrolo[2,3-b]pyridine-3-carbonyl)-2,4-difluorophenyl]-3-fluoropyrrolidine-1-sulfonamide]"
0.05 to 0.5 µM,35 to 70%,0.001 to 0.01 µM,35 to 70%,"O=C1CCC(N2Cc3cc(N4CCC(C5CN(c6ccc(-c7cnc8[nH]cc(C(=O)c9c(F)ccc(NS(=O)(=O)N%10CC[C@@H](F)C%10)c9F)c8c7)cc6)C5)CC4)ccc3C2=O)C(=O)N1 (stereo partly drawn) [Compound 293, (3R)-N-(3-{5-[4-(3-{1-[2-(2,6-dioxopiperidin-3-yl)-1-oxo-2,3-dihydro-1H-isoindol-5-yl]piperidin-4-yl}azetidin-1-yl)phenyl]-1H-pyrrolo[2,3-b]pyridine-3-carbonyl}-2,4-difluorophenyl)-3-fluoropyrrolidine-1-sulfonamide]"
0.05 to 0.5 µM,35 to 70%,0.001 to 0.01 µM,35 to 70%,"O=C1CCC(N2Cc3cc(CCCOCC4CCN(c5ccc(-c6cnc7[nH]cc(C(=O)c8c(F)ccc(NS(=O)(=O)N9CC[C@@H](F)C9)c8F)c7c6)cc5)CC4)ccc3C2=O)C(=O)N1 (stereo partly drawn) [Compound 294, (3R)-N-[3-(5-{4-[4-({3-[2-(2,6-dioxopiperidin-3-yl)-1-oxo-2,3-dihydro-1H-isoindol-5-yl]propoxy}methyl)piperidin-1-yl]phenyl}-1H-pyrrolo[2,3-b]pyridine-3-carbonyl)-2,4-difluorophenyl]-3-fluoropyrrolidine-1-sulfonamide]"

# Reference: patent publication US12180193B2, “Accelerating fibrosarcoma protein degrading compounds and associated methods of use” (Arvinas Operations, Inc., priority 2020, dated 2024)
